pIC50: −log10 of the molar value. In brackets after ≈: the same amount, converted by molar mass.
Assays:
[1] = molecular target: T1, Human recombinant liver glycogen phosphorylase a (hrl GPa) (Homo sapiens, UniProt P06737); test: Glycogen phosphorylase inhibition, multienzyme coupled assay; assay type: biochemical; conditions: hrl GPa 20 nM, 6 hours at 30° C.
T1 sequence (P06737 1-847): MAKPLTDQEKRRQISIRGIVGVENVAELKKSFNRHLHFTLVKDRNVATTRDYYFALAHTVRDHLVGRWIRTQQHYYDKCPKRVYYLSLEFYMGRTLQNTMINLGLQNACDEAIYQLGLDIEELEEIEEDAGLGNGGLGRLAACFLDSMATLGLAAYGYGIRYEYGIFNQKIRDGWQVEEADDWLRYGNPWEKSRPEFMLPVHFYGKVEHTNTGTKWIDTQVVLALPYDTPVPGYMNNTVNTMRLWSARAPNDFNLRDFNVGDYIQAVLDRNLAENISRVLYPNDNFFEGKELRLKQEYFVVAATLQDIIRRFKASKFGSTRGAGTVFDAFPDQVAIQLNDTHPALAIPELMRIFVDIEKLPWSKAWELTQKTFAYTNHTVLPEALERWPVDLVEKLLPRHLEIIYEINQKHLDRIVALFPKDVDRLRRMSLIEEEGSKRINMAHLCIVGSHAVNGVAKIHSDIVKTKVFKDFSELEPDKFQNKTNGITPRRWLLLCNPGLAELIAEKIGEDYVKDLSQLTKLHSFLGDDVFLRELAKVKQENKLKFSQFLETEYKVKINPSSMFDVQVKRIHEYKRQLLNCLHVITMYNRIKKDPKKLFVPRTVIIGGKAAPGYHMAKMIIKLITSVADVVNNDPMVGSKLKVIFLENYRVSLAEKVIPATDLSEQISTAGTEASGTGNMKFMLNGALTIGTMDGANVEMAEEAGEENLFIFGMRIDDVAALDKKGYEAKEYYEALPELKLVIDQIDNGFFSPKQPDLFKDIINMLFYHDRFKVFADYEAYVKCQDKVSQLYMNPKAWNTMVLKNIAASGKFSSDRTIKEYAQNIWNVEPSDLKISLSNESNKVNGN
Experimental: The activity of the compounds is alternatively determined by measuring the inhibitory effect of the compounds on glycogen degradation, the production of glucose-1-phosphate from glycogen is monitored by the multienzyme coupled assay, as described in EP 0 846 464 A2, general method of Pesce et al (Pesce, M A, Bodourian, S H, Harris, R C, and Nicholson, J F (1977) Clinical Chemistry 23, […]). The reactions were in 384 well microplate format in a volume of 50 μl. The change in fluorescence due to the conversion of the co-factor NAD to NADH is measured at 340 nm excitation, 465 nm emission in a Tecan Ultra Multifunctional Microplate Reader. The reaction is in 50 mM […], 3.5 mM KH2PO4, 2.5 mM MgCl2, 2.5 mM ethylene glycol-bis(b-aminoethyl ether) N,N,N,′N′-tetraacetic acid, 100 mM KCl, 8 mM D-(+)-glucose pH7.2, containing 0.5 mM dithiothreitol, the assay buffer solution. Human recombinant liver glycogen phosphorylase a (hrl GPa) 20 nM is pre-incubated in assay buffer solution with 6.25 mM NAD, 1.25 mg type E1 glycogen at 1.25 mg ml^−1 the reagent buffer, for 30 minutes. […] The non-inhibited activity of GPa is measured in the presence of 10 μl 5% DMSO in assay buffer solution and maximum inhibition measured in the presence of 5 mgs ml^−1 N-ethylmaleimide. […] Relative Fluoresence Units (RFUs) are measured at 340 nm excitation, 465 nm emission. […]

[2] = Thermodynamic solubility; assay type: physicochemical; conditions: phosphate buffer, pH 7.4, aqueous buffer, thermodynamic from solid, 0.1 M phosphate at pH7.4 for 24 hours
Experimental: The thermodynamic solubility data for the compounds of the invention as given above may be measured by agitating the compound in 0.1 M phosphate at pH7.4 for 24 hours, then analysis of the supernatant (for example by LCUV/MS) using a solution (for example in DMSO) of known concentration as the calibrant.

[3] = system: hepatocytes; conditions: cited from earlier work; for glucose output: glucagon stimulated
[4] = system: db/db and ob/ob mice; conditions: dose related; cited from earlier work
[5] = system: conscious dogs; conditions: following a glucagon challenge; cited from earlier work

SMILES | pIC50 [1] | solubility at 24 h [2] [µM] | glucagon stimulated glycogenolysis [3] | glucose output [3] | plasma glucose concentration [4] | also measured
CN(C(=O)[C@@H](N)CO)[C@@H]1c2ccccc2C[C@H]1NC(=O)c1cc2cc(Cl)ccc2[nH]1.Cl [Example 2, 5-Chloro-N-{(1R,2R)-1-[methyl(seryl)amino]-2,3-dihydro-1H-inden-2-yl}-1H-indole-2-carboxamide hydrochloride] | 6.30 | 173 | – | – | – | –
CN(C)C(=O)[C@H](O)[C@H](Cc1ccccc1)NC(=O)c1cc2cc(Cl)ccc2[nH]1 [CP91149] | – | – | reduce | reduce | reduced, in a dose related manner | –
CCN1C(C)=C(C(=O)OC(C)C)C(c2ccccc2Cl)C2=C1COC2=O (stereo not drawn) [Bay R 3401] | – | – | – | – | – | arterial plasma glucose [5]: reduced significantly; hepatic glucose output [5]: reduced significantly
O=C(N[C@@H](Cc1ccc(F)cc1)C(=O)N1CCC(O)CC1)c1cc2cc(Cl)ccc2[nH]1 [CP320626] | – | – | reduce | reduce | reduced, in a dose related manner | –
CN(C(=O)[C@H](O)CO)[C@@H]1c2ccccc2C[C@H]1NC(=O)c1cc2cc(Cl)ccc2[nH]1 [Example 19, 5-Chloro-N-{(1R,2R)-1-[[(2R)-2,3-dihydroxypropanoyl](methyl)amino]-2,3-dihydro-1H-inden-2-yl}-1H-indole-2-carboxamide] | 6.96 | 119 (≈ 50.9 µg/mL) | – | – | – | –

From patent publication US20060199966A1, “Indol-2-amides as glycogen phosphorylase inhibitors” (AstraZeneca AB, priority 2003, published 2006)
